Patent US20040071633A1, “Method for determining efficacy of reverse cholesterol transport enhancing agents” (priority 2003, published 2004)

Tests used:
THP-1 cells [1] = assay: cholesterol efflux from [3H]cholesterol-labeled THP-1 cells mediated by sCD14 or apo A-I; format: cell-based
Procedure: FIGS. 1a, 1b and 1c are graphs showing the effect of sCD14 concentration on cholesterol efflux. [^3H]cholesterol-labeled THP-1 cells were incubated with the indicated concentration of sCD14 (closed circles), apo A-I (open circles) or HSA (inverted triangles) in RPMI for 30 min (a and b) or for 20 h (c). Each point represents the mean of three measurements±SD (a) or the average of duplicate samples±range (b and c). Data are representative of five independent experiments with similar results.
[^3H]cholesterol-labeled THP-1 cells were incubated with increasing concentrations of sCD14, apo A-I or the control protein, HSA, and radioactivity in the supernatant was determined. The initial rate of cholesterol efflux was explored in studies of short duration (30 min, FIG. 1a and with extended dose response in FIG. 1b). […] Because of the linear dose-dependence of sCD14-mediated efflux and because no other cholesterol acceptor was present in the incubation, these observations appear most consistent with a direct, low affinity binding of cholesterol to sCD14.
The maximal extent of cholesterol efflux mediated by apo A-I and sCD14 was explored in parallel experiments of 24 hr duration (FIG. 1c). […] However, because of the limiting concentrations of sCD14 in plasma (3-5 μg/ml) and the far greater concentration of apo A-I (˜1 mg/ml), sCD14 per se is unlikely to be a significant reservoir or destination for the cholesterol in plasma.

THP-1 cells [2] = assay: sCD14 acceleration of cholesterol efflux from [3H]cholesterol-labeled THP-1 cells to apo A-I, HDL3 or HDL; format: cell-based; details: sCD14 5 μg/ml alone or apo A-I 100 μg/ml alone
Procedure: FIG. 2 is a graph showing the kinetics of cholesterol efflux by sCD14 and/or apo A-I. [^3H]cholesterol-labeled THP-1 cells were incubated with or without 5 μg/ml of sCD14 and/or 100 μg/ml of apo A-I in RPMI. Background efflux without proteins at each time was measured and subtracted from other data point. Closed circles, sCD14; open circles, apo A-I; inverted triangles, sCD14 and apo A-L. Data represents the mean of three measurements±SD. The data were repeated with similar results.
FIG. 3 is a graph showing the dose dependent additive effect of sCD14 for cholesterol efflux to apo A-I but not to HDL. [^3 H]cholesterol-labeled TBP-1 cells were incubated in buffer containing 50 μg/ml of apo A-I, HDL3 or HDL with or without the indicated concentration of sCD14 for 1 h. Open bar, without sCD14; hatched bar, 10 μg/ml sCD14; black bar, 25 μg/ml sCD14. Background efflux without proteins at each time was measured and subtracted from other data point. Asterisks show statistical significance compared to the data without sCD14: *, p<0.01; **, p<0.001. Data are representative of three independent experiments with similar results.
The following experiment was performed to determine if sCD14 could facilitate the efflux of cholesterol to its major acceptor, apo A-I (FIG. 2). […]

ABCA1 mRNA = ABCA1 mRNA expression by real-time quantitative TaqMan PCR in THP-1 or HepG2 cells; format: cell-based, human
Procedure: (§1) FIGS. 5a and 5b are graphs showing that activation of LXR increases mRNA expression of ABCA1 and CD14. THP-1 or HepG2 cells (5×10^5 cells/well) were plated in 6-well plates, and mixed with buffer (open bar) or 22(R)—OH cholesterol (10 μM, closed bar). After overnight incubation (˜16 hr) at 37° C., RNA samples were prepared from the cultured cells, and mRNAs for ABCA1 (a) and CD14 (b) were measured as described in Example 4, below. Results are presented as fold of control (untreated cells), and data are shown as the means±range of duplicate determinations.
(§2) Recent studies indicate that cholesterol efflux from cells is regulated by the transcription factor, LXR, which binds regulatory oxysterols and enhances expression of ABCA1 (see Costet, P., Luo, Y., Wang, N., and Tall, A. R. (2000) J. Biol. Chem. 275, 28240-28245; and Schwartz, K., Lawn, R. M., and Wade, D. P. (2000) Biochem. Biophys. Res. Commun. 274, 794-802.). If CD14 shared with ABCA1 a role in cholesterol efflux from cells, the expression of CD14 might be regulated in parallel with ABCA1 to help achieve cholesterol homeostasis. To test this, cells were incubated with 22(R)-hydroxycholesterol (22R—OH cholesterol), a specific ligand for LXR, and expression of ABCA1 and CD14 mRNA was measured by real time PCR. […] The dose dependence for induction of ABCA1 and CD14 was roughly similar with half-maximal induction observed at ˜10 μM (not shown). Induction of ABCA1 appeared slightly more rapid than that of CD14, but both reached a plateau level by 16 hr. The magnitude of the response of CD14 to 22R—OH cholesterol was less than that observed for ABCA1, but the increase was consistently seen with either of these two cell types. […]
(§3) Real-time quantitative TaqMan PCR analysis (Heid, C. A., Stevens, J., Livak, K. J., and Williams, P. M. (1996) Genome Res. 6, 986-994) was used to determine the relative levels of CD14 and ABCA1 mRNA. […] Sequence-specific amplification was detected with an increased fluorescent signal of FAM (reporter dye) during the amplification cycle. […]

CD14 mRNA = CD14 mRNA expression by real-time quantitative TaqMan PCR in THP-1 or HepG2 cells; format: cell-based, human
Procedure: as §1, §2, §3

[3] = THP-1 monocytes or HepG2, 10 μM, overnight (~16 hr)

Molecule	concentration at which cholesterol efflux is saturable (THP-1 cells [1]; 30 min assays, THP-1 cells, no other cholesterol acceptor) [µg/mL]	concentration leading to near maximal cholesterol efflux (THP-1 cells [1]; 24 hr duration, THP-1 cells) [µg/mL]	capacity to mediate cholesterol efflux relative to CD14 (THP-1 cells [1]; 24 hr duration, comparison of dose-dependence curves)	cholesterol efflux by protein alone, kinetic analysis (THP-1 cells [2])	time to plateau level of ABCA1 induction (ABCA1 mRNA) [h]	EC50 (ABCA1 mRNA; Homo sapiens, dose dependence (not shown), read-out: half-maximal induction of ABCA1) [µM]	ABCA1 mRNA expression (ABCA1 mRNA; [3])	time to plateau level of CD14 induction (CD14 mRNA) [h]	EC50 (CD14 mRNA; Homo sapiens, dose dependence (not shown), read-out: half-maximal induction of CD14) [µM]	CD14 mRNA expression (CD14 mRNA; [3])
apo A-I: apolipoprotein A-I, major acceptor of cellular cholesterol	10 to 20	10	10-20 fold	larger efflux						
CC(C)CC[C@@H](O)[C@@H](C)[C@H]1CC[C@H]2[C@@H]3CC=C4C[C@@H](O)CC[C@]4(C)[C@H]3CC[C@]12C [22(R)-hydroxycholesterol]					≤ 16	~10	consistent rise	≤ 16	~10	consistent rise
